Patent US6737383B1, “Herbicidal oxadiazolidines” (priority 1999, dated 2004)

Assays:
purple nutsedge = assay: Test B pre/postemergence purple nutsedge; type: in vivo, Cyperus rotundus
Summary of the method: (§1)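 Response is a visual 0-to-10 score relative to untreated plants, where 0 means no effect and 10 means complete control, taken twelve to sixteen days after application. Treatments went onto soil at planting and onto foliage of 1- to 4-leaf plants, using a surfactant-containing non-phytotoxic solvent.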

cocklebur = assay: Test B pre/postemergence cocklebur; type: in vivo, Xanthium strumarium
Summary of the method: as §1

smallflower flatsedge = assay: Test B flood test smallflower flatsedge; type: in vivo, Cyperus difformis
Summary of the method: (§2)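 Flood test on plants grown to the 2-leaf stage; treated plants kept in greenhouse twelve to sixteen days, then visually rated against controls on a 0 (no effect) to 10 (complete control) scale.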

soybean = assay: Test B pre/postemergence soybean; type: in vivo, Glycine max
Summary of the method: as §1

rape = assay: Test B pre/postemergence rape; type: in vivo, Brassica napus
Summary of the method: as §1

sugar beet = assay: Test B pre/postemergence sugar beet; type: in vivo, Beta vulgaris
Summary of the method: as §1

crabgrass = assay: Test B pre/postemergence crabgrass; type: in vivo, Digitaria sanguinalis
Summary of the method: as §1

rice = assay: Test B flood test rice; type: in vivo, Oryza sativa
Summary of the method: as §2

duck salad = assay: Test B flood test duck salad; type: in vivo, Heteranthera limosa
Summary of the method: as §2

pigweed = assay: Test B pre/postemergence pigweed; type: in vivo, Amaranthus retroflexus
Summary of the method: as §1

giant foxtail = assay: Test B pre/postemergence giant foxtail; type: in vivo, Setaria faberii
Summary of the method: as §1

morningglory = assay: Test B pre/postemergence morningglory; type: in vivo, Ipomoea hederacea
Summary of the method: as §1

blackgrass = assay: Test B pre/postemergence blackgrass; type: in vivo, Alopecurus myosuroides
Summary of the method: as §1

velvetleaf = assay: Test B pre/postemergence velvetleaf; type: in vivo, Abutilon theophrasti
Summary of the method: as §1

corn = assay: Test B pre/postemergence corn; type: in vivo, Zea mays
Summary of the method: as §1

wheat = assay: Test B pre/postemergence wheat; type: in vivo, Triticum aestivum
Summary of the method: as §1

[1] = Postemergence, Rate 62 g/ha, scale 0 to 10, 0 is no effect, 10 is complete control
[2] = Postemergence, Rate 250 g/ha, scale 0 to 10, 0 no effect, 10 complete control
[3] = Preemergence, Rate 62 g/ha, scale 0 to 10 (0 no effect, 10 complete control)
[4] = Preemergence, Rate 125 g/ha, scale 0 to 10 (0 no effect, 10 complete control)
[5] = Preemergence, Rate 250 g/ha, scale of 0 to 10 where 0 is no effect and 10 is complete control
[6] = Preemergence, Rate 500 g/ha, scale 0 (no effect) to 10 (complete control)
[7] = Rate 125 g/ha, Postemergence, scale 0 to 10, 0 no effect, 10 complete control
[8] = Rate 500 g/ha, Postemergence, scale 0 to 10, 0 no effect, 10 complete control
[9] = Rate 125 g/ha, Postemergence section (flood test species), scale 0 to 10, 0 no effect, 10 complete control
[10] = Rate 500 g/ha, listed under Postemergence (flood test species), scale 0 to 10, 0 no effect, 10 complete control
[11] = flood test, listed under Postemergence, Rate 250 g/ha, scale 0 to 10, 0 no effect, 10 complete control

Q: How did the “Nutsedge plant response rating” value (purple nutsedge; [1]) turn out when `CC(C)N(C(=O)n1oc(=O)n(Cc2ccccc2)c1=O)c1ccc(F)cc1F` [Compound 79] was run?
A: 0

Q: And the “Nutsedge plant response rating” value (purple nutsedge; [2])?
A: 0

Q: What about the “Nutsedge plant response rating” value (purple nutsedge; [3]) of the same compound?
A: 0

Q: What about the “Plant response rating, Nutsedge” value (purple nutsedge; [4]) of the same compound?
A: 0

Q: What about the “Plant response rating, Nutsedge” value (purple nutsedge; [5]) of the same compound?
A: 0

Q: What about the “Nutsedge plant response rating” value (purple nutsedge; [6]) of the same compound?
A: 0

Q: What about the “Nutsedge plant response rating” value (purple nutsedge; [7]) of the same compound?
A: 0

Q: What about the “Nutsedge plant response rating” value (purple nutsedge; [8]) of the same compound?
A: 0

Q: What about the “Cocklebur plant response rating” value (cocklebur; [1]) of the same compound?
A: 0

Q: And the “Cocklebur plant response rating” value (cocklebur; [2])?
A: 2

Q: And the “Cocklebur plant response rating” value (cocklebur; [3])?
A: 0

Q: And the “Plant response rating, Cocklebur” value (cocklebur; [4])?
A: 0

Q: What about the “Plant response rating, Cocklebur” value (cocklebur; [5]) of the same compound?
A: 0

Q: What about the “Cocklebur plant response rating” value (cocklebur; [6]) of the same compound?
A: 0

Q: What about the “Cocklebur plant response rating” value (cocklebur; [7]) of the same compound?
A: 0

Q: What about the “Cocklebur plant response rating” value (cocklebur; [8]) of the same compound?
A: 2

Q: And the “S. Flatsedge plant response rating” value (smallflower flatsedge; [1])?
A: 0

Q: What about the “S. Flatsedge plant response rating” value (smallflower flatsedge; [9]) of the same compound?
A: 0

Q: What about the “S. Flatsedge plant response rating” value (smallflower flatsedge; [10]) of the same compound?
A: 10

Q: And the “S. Flatsedge plant response rating” value (smallflower flatsedge; [11])?
A: 4

Q: What about the “Soybean plant response rating” value (soybean; [1]) of the same compound?
A: 0

Q: And the “Soybean plant response rating” value (soybean; [2])?
A: 1

Q: What about the “Soybean plant response rating” value (soybean; [3]) of the same compound?
A: 0

Q: And the “Plant response rating, Soybean” value (soybean; [4])?
A: 0

Q: What about the “Plant response rating, Soybean” value (soybean; [5]) of the same compound?
A: 0

Q: And the “Soybean plant response rating” value (soybean; [6])?
A: 0

Q: And the “Soybean plant response rating” value (soybean; [7])?
A: 1

Q: What about the “Soybean plant response rating” value (soybean; [8]) of the same compound?
A: 2

Q: What about the “Rape plant response rating” value (rape; [1]) of the same compound?
A: 0

Q: What about the “Rape plant response rating” value (rape; [2]) of the same compound?
A: 0

Q: And the “Rape plant response rating” value (rape; [3])?
A: 0

Q: What about the “Plant response rating, Rape” value (rape; [4]) of the same compound?
A: 0

Q: And the “Plant response rating, Rape” value (rape; [5])?
A: 0

Q: And the “Rape plant response rating” value (rape; [6])?
A: 0

Q: And the “Rape plant response rating” value (rape; [7])?
A: 0

Q: And the “Rape plant response rating” value (rape; [8])?
A: 3

Q: What about the “Sugarbeets plant response rating” value (sugar beet; [1]) of the same compound?
A: 3

Q: And the “Sugarbeets plant response rating” value (sugar beet; [2])?
A: 4

Q: What about the “Sugarbeets plant response rating” value (sugar beet; [3]) of the same compound?
A: 0

Q: What about the “Plant response rating, Sugarbeets” value (sugar beet; [4]) of the same compound?
A: 1

Q: What about the “Plant response rating, Sugarbeets” value (sugar beet; [5]) of the same compound?
A: 1

Q: What about the “Sugarbeets plant response rating” value (sugar beet; [6]) of the same compound?
A: 2

Q: And the “Sugarbeets plant response rating” value (sugar beet; [8])?
A: 6

Q: What about the “Crabgrass plant response rating” value (crabgrass; [1]) of the same compound?
A: 3

Q: What about the “Crabgrass plant response rating” value (crabgrass; [2]) of the same compound?
A: 4

Q: What about the “Crabgrass plant response rating” value (crabgrass; [3]) of the same compound?
A: 2

Q: And the “Plant response rating, Crabgrass” value (crabgrass; [4])?
A: 7

Q: What about the “Plant response rating, Crabgrass” value (crabgrass; [5]) of the same compound?
A: 9

Q: What about the “Crabgrass plant response rating” value (crabgrass; [6]) of the same compound?
A: 10

Q: And the “Crabgrass plant response rating” value (crabgrass; [7])?
A: 4

Q: And the “Crabgrass plant response rating” value (crabgrass; [8])?
A: 8

Q: And the “Rice plant response rating” value (rice; [1])?
A: 0

Q: What about the “Rice plant response rating” value (rice; [9]) of the same compound?
A: 0

Q: What about the “Rice plant response rating” value (rice; [10]) of the same compound?
A: 3

Q: What about the “Rice plant response rating” value (rice; [11]) of the same compound?
A: 0

Q: And the “Ducksalad plant response rating” value (duck salad; [1])?
A: 0

Q: And the “Ducksalad plant response rating” value (duck salad; [9])?
A: 0

Q: And the “Ducksalad plant response rating” value (duck salad; [10])?
A: 3

Q: And the “Ducksalad plant response rating” value (duck salad; [11])?
A: 0

Q: And the “Redroot pigweed plant response rating” value (pigweed; [1])?
A: 0

Q: What about the “Redroot pigweed plant response rating” value (pigweed; [2]) of the same compound?
A: 3

Q: What about the “Redroot pigweed plant response rating” value (pigweed; [3]) of the same compound?
A: 0

Q: And the “Plant response rating, Redroot pigweed” value (pigweed; [4])?
A: 4

Q: And the “Plant response rating, Redroot pigweed” value (pigweed; [5])?
A: 7

Q: And the “Redroot pigweed plant response rating” value (pigweed; [6])?
A: 10

Q: What about the “Redroot pigweed plant response rating” value (pigweed; [7]) of the same compound?
A: 0

Q: What about the “Redroot pigweed plant response rating” value (pigweed; [8]) of the same compound?
A: 4

Q: What about the “Giant foxtail plant response rating” value (giant foxtail; [1]) of the same compound?
A: 0

Q: And the “Giant foxtail plant response rating” value (giant foxtail; [2])?
A: 3

Q: And the “Giant foxtail plant response rating” value (giant foxtail; [3])?
A: 4

Q: What about the “Plant response rating, Giant foxtail” value (giant foxtail; [4]) of the same compound?
A: 8

Q: What about the “Plant response rating, Giant foxtail” value (giant foxtail; [5]) of the same compound?
A: 9

Q: What about the “Giant foxtail plant response rating” value (giant foxtail; [6]) of the same compound?
A: 9

Q: And the “Giant foxtail plant response rating” value (giant foxtail; [7])?
A: 2

Q: What about the “Giant foxtail plant response rating” value (giant foxtail; [8]) of the same compound?
A: 4

Q: And the “Morningglory plant response rating” value (morningglory; [1])?
A: 5

Q: What about the “Morningglory plant response rating” value (morningglory; [2]) of the same compound?
A: 7

Q: What about the “Morningglory plant response rating” value (morningglory; [3]) of the same compound?
A: 0

Q: What about the “Plant response rating, Morningglory” value (morningglory; [4]) of the same compound?
A: 0

Q: And the “Plant response rating, Morningglory” value (morningglory; [5])?
A: 0

Q: What about the “Morningglory plant response rating” value (morningglory; [6]) of the same compound?
A: 0

Q: What about the “Morningglory plant response rating” value (morningglory; [7]) of the same compound?
A: 5

Q: And the “Morningglory plant response rating” value (morningglory; [8])?
A: 8

Q: And the “Blackgrass plant response rating” value (blackgrass; [1])?
A: 0

Q: And the “Blackgrass plant response rating” value (blackgrass; [2])?
A: 3

Q: And the “Blackgrass plant response rating” value (blackgrass; [3])?
A: 0

Q: And the “Plant response rating, Blackgrass” value (blackgrass; [4])?
A: 2

Q: What about the “Plant response rating, Blackgrass” value (blackgrass; [5]) of the same compound?
A: 6

Q: And the “Blackgrass plant response rating” value (blackgrass; [6])?
A: 6

Q: What about the “Blackgrass plant response rating” value (blackgrass; [7]) of the same compound?
A: 0

Q: And the “Blackgrass plant response rating” value (blackgrass; [8])?
A: 3

Q: And the “Velvetleaf plant response rating” value (velvetleaf; [1])?
A: 0

Q: And the “Velvetleaf plant response rating” value (velvetleaf; [2])?
A: 0

Q: What about the “Velvetleaf plant response rating” value (velvetleaf; [3]) of the same compound?
A: 0

Q: And the “Plant response rating, Velvetleaf” value (velvetleaf; [4])?
A: 0

Q: And the “Plant response rating, Velvetleaf” value (velvetleaf; [5])?
A: 0

Q: And the “Velvetleaf plant response rating” value (velvetleaf; [6])?
A: 3

Q: What about the “Velvetleaf plant response rating” value (velvetleaf; [7]) of the same compound?
A: 0

Q: What about the “Velvetleaf plant response rating” value (velvetleaf; [8]) of the same compound?
A: 3

Q: What about the “Corn plant response rating” value (corn; [1]) of the same compound?
A: 0

Q: What about the “Corn plant response rating” value (corn; [2]) of the same compound?
A: 0

Q: And the “Corn plant response rating” value (corn; [3])?
A: 0

Q: And the “Plant response rating, Corn” value (corn; [4])?
A: 0

Q: What about the “Plant response rating, Corn” value (corn; [5]) of the same compound?
A: 0

Q: And the “Corn plant response rating” value (corn; [6])?
A: 0

Q: What about the “Corn plant response rating” value (corn; [7]) of the same compound?
A: 0

Q: And the “Corn plant response rating” value (corn; [8])?
A: 0

Q: And the “Wheat plant response rating” value (wheat; [1])?
A: 0

Q: What about the “Wheat plant response rating” value (wheat; [2]) of the same compound?
A: 0

Q: What about the “Wheat plant response rating” value (wheat; [3]) of the same compound?
A: 0

Q: What about the “Plant response rating, Wheat” value (wheat; [4]) of the same compound?
A: 0

Q: What about the “Plant response rating, Wheat” value (wheat; [5]) of the same compound?
A: 0

Q: What about the “Wheat plant response rating” value (wheat; [6]) of the same compound?
A: 2

Q: What about the “Wheat plant response rating” value (wheat; [7]) of the same compound?
A: 0

Q: What about the “Wheat plant response rating” value (wheat; [8]) of the same compound?
A: 0
